Test results as given in EPA's ToxValDB 9.5 (doi:10.2903/j.efsa.2009.298r).
In brackets after ≈: the same amount, converted by molar mass.

Legend:
Apis mellifera = conditions: acute, mortality
Tagia sp. = conditions: mortality
Daphnia magna = conditions: chronic/long-term; duration: 21 days; reproduction
Allium cepa = conditions: not reported; seedling emergence
Canidae = conditions: oral, Dog Other, organ weight
Folsomia candida = conditions: chronic/long-term

`CCCCC(C#N)(Cn1cncn1)c1ccc(Cl)cc1` (configuration not stated) [Myclobutanil] was tested, and the LC50 (Colinus virginianus; acute, oral, diet, mortality) was over 567 mg/kg-day, the LD50 (Colinus virginianus; acute, oral, mortality) was 510 mg/kg-day and the NOEC (Colinus virginianus; reproduction developmental) was 24.2 mg/kg-day. It also gave an NOEC (Anas platyrhynchos; reproductive) of 31.6 mg/kg-day, an LC50 (Anas platyrhynchos; short-term, oral, feed, mortality) of over 1540 mg/kg-day and an LC50 (Oncorhynchus mykiss; acute, duration: 96 hours, mortality) of 2 µg/mL (≈ 6.93 µM). It also gave an NOEC (Oncorhynchus mykiss; chronic/long-term, duration: 21 days, growth) of 0.2 mg/L, an LEL (Typhlodromus pyri; acute, duration: 14 days, mortality) of 36 g/ha and an LEL (Typhlodromus pyri; not reported, reproduction) of 36 g/ha. For the same compound, the LD50 (Apis mellifera; duration: 72 hours, dermal) was over 39.6 µg/piece, the LD50 (Apis mellifera; oral, unspecified) was over 33.9 µg/piece and the LC50 (Tagia sp.; acute) was 250 mg/kg. It also gave an NOEC (Tagia sp.; chronic/long-term, duration: 28 days) of 10.3 mg/kg, an NOEC (Daphnia magna) of 1 mg/L and an LEL (Allium cepa) of over 300 g/ha. It also gave an NOAEL (Canidae; chronic, duration: 1 years) of 3.09 mg/kg-day, an NOAEL (Canidae; subchronic, duration: 90 days) of 3.09 mg/kg-day and an LD50 (Rattus norvegicus; acute, oral, M, mortality) of 1600 mg/kg-day. For the same compound, the NOAEL (Rattus norvegicus; chronic, duration: 2 years, histopathology: nonneoplastic) was 2.5 mg/kg-day, the NOAEL (Rattus norvegicus; developmental, development) was 31 mg/kg-day and the NOEL (Rattus norvegicus; reproduction developmental, reproduction) was 16 mg/kg-day. For the same compound, the NOEC (Folsomia candida) was 20.5 mg/kg.
